Experimental data published in PMC9403976, “Elucidating the path to Plasmodium prolyl-tRNA synthetase inhibitors that overcome halofuginone resistance” (Nature Communications, 2022).
Where “and” joins values, the source holds several entries; their conditions need not be identical. Equal values may be shown once. Read-outs that look alike come from different tables or passages of the source.

Columns and labels:
[1] = target: HsProRS (Homo sapiens, UniProt P07814); experiment: TR-FRET ligand displacement assay with tracer MAT379 (CoraFluor-1-Halo and anti-His6 antibody formats); format: binding; design: made in house; host or cells: E. coli SoluBL-21; settings: SI Fig 15
Chain of HsProRS (P07814 996-1512): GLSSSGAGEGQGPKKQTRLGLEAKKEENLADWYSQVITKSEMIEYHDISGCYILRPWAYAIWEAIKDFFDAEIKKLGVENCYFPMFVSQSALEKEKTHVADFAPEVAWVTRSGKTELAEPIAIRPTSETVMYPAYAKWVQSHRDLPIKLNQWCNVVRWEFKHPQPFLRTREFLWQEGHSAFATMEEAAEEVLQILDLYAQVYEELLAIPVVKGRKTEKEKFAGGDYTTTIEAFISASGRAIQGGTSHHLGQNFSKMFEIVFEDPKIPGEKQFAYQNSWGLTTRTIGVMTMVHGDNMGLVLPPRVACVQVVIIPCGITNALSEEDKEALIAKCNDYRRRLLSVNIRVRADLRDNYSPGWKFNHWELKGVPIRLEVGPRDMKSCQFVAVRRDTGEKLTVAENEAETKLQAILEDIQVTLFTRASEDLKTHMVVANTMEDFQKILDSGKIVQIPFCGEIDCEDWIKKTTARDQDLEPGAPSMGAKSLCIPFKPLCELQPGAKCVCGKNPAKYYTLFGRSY

[2] = tested on: P. falciparum Dd2-2D4; experiment: P. falciparum asexual blood stage (ABS) growth assay, SYBR Green, 72 h, wild-type parasites; format: cell-based, Plasmodium falciparum; settings: for parasite growth, replicate wells (Fig 1b): Dd2-2D4
[3] = tested on: HFGR-I P. falciparum (elevated proline homeostasis and PfcProRS^L482H); experiment: P. falciparum ABS growth assay, SYBR Green, 72 h, HFGR-I parasites; format: cell-based, Plasmodium falciparum; settings: HFGR-I
Procedure, shortened: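 Dd2-derived P. falciparum lines (HFGR-I, halofuginone-induced) at 1% parasitemia and 1% hematocrit in RPMI + 0.5% Albumax were exposed to compounds in triplicate dose-response for 72 h. Growth was read as SYBR Green 1 fluorescence, with 10 μM dihydroartemisinin as kill control and compound-free wells as growth control.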

[4] = target: T1, PfcProRS (Plasmodium falciparum, UniProt Q8I5R7); format: binding; settings: for dose-response signal (normalized), SI Fig 8: single replicates
T1 construct: made in house; host or cells: E. coli SoluBL-21
T1 sequence (Q8I5R7 249-746): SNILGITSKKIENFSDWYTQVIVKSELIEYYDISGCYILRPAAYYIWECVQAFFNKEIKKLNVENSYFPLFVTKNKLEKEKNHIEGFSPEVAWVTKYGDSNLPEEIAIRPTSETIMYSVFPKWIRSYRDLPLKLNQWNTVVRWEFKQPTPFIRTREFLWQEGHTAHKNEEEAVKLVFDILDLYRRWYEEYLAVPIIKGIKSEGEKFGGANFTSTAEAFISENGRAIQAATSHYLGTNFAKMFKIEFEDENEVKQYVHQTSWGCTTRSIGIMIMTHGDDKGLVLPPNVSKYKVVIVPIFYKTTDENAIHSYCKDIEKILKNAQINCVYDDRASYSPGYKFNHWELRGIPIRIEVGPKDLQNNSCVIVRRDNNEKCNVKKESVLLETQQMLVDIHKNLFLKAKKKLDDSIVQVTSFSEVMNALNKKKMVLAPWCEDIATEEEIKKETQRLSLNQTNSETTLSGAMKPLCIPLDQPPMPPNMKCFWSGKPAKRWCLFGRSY

## O=C(NC1Cc2ccccc2C1)c1nccnc1NC(=O)C1CCCCC1 [compound 2, reference compound]
[1]; Log[inhibitor] (M) -6.20323
  normalized TR-FRET signal (dose-response replicates): 6.14E-01 and 7.99E-01 and 9.70E-01
[1]; Log[inhibitor] (M) -6.51347
  normalized TR-FRET signal (dose-response replicates): 9.27E-01 and 8.30E-01 and 1.04E+00
[1]; Log[inhibitor] (M) -6.79595
  normalized TR-FRET signal (dose-response replicates): 1.19E+00 and 9.68E-01 and 1.04E+00
[1]; Log[inhibitor] (M) -7.10794
  normalized TR-FRET signal (dose-response replicates): 9.40E-01 and 8.31E-01 and 8.97E-01
[1]; Log[inhibitor] (M) -7.40526
  normalized TR-FRET signal (dose-response replicates): 6.74E-01 and 8.60E-01 and 9.73E-01
[1]; Log[inhibitor] (M) -7.7137
  normalized TR-FRET signal (dose-response replicates): 9.61E-01 and 8.55E-01 and 9.51E-01
[1]; Log[inhibitor] (M) -8
  normalized TR-FRET signal (dose-response replicates): 9.74E-01 and 7.58E-01 and 8.90E-01
[1]; Log[inhibitor] (M) -8.331
  normalized TR-FRET signal (dose-response replicates): 8.05E-01 and 1.09E+00 and 1.00E+00
[1]; Log[inhibitor] (M) -8.57403
  normalized TR-FRET signal (dose-response replicates): 1.32E+00 and 1.15E+00 and 1.19E+00
[1]; Log[inhibitor] (M) -8.87506
  normalized TR-FRET signal (dose-response replicates): 9.35E-01 and 9.99E-01 and 1.09E+00
[1]; Log[inhibitor] (M) -9.17609
  normalized TR-FRET signal (dose-response replicates): 1.03E+00 and 1.04E+00 and 1.09E+00
[2]; Log[inhibitor] (M) -5.000
  parasite growth, replicate wells (Fig 1b): 1.00E+00 (2×) and 0.00E+00
[2]; Log[inhibitor] (M) -5.301
  parasite growth, replicate wells (Fig 1b): 0.00E+00 (2×) and -2.00E+00
[2]; Log[inhibitor] (M) -5.602
  parasite growth, replicate wells (Fig 1b): 1.00E+00 and -1.00E+00 and 2.00E+00
[2]; Log[inhibitor] (M) -5.903
  parasite growth, replicate wells (Fig 1b): 1.70E+01 and 1.20E+01 and 1.60E+01
[2]; Log[inhibitor] (M) -6.204
  parasite growth, replicate wells (Fig 1b): 4.80E+01 (2×) and 4.40E+01
[2]; Log[inhibitor] (M) -6.505
  parasite growth, replicate wells (Fig 1b): 8.30E+01 (2×) and 8.20E+01
[2]; Log[inhibitor] (M) -6.806
  parasite growth, replicate wells (Fig 1b): 1.04E+02 and 1.00E+02 and 1.01E+02
[2]; Log[inhibitor] (M) -7.107
  parasite growth, replicate wells (Fig 1b): 8.30E+01 and 8.10E+01 and 8.20E+01
[2]; Log[inhibitor] (M) -7.408
  parasite growth, replicate wells (Fig 1b): 8.20E+01 and 7.90E+01 and 8.10E+01
[2]; Log[inhibitor] (M) -7.709
  parasite growth, replicate wells (Fig 1b): 9.90E+01 and 8.20E+01 and 1.00E+02
[2]; Log[inhibitor] (M) -8.010
  parasite growth, replicate wells (Fig 1b): 9.50E+01 and 1.05E+02 and 1.00E+02
[2]; Log[inhibitor] (M) -8.311
  parasite growth, replicate wells (Fig 1b): 8.90E+01 and 1.00E+02 and 9.90E+01
[2]; Plasmodium falciparum, DD2, SI Fig 16b, values on -log scale, read-out: ABS - Dd2-2D4 (converted)
  EC50: 596 nM
[3]; Log[inhibitor] (M) -5.000
  parasite growth, replicate wells (Fig 1b): 6.00E+00 (2×) and 7.00E+00
[3]; Log[inhibitor] (M) -5.408
  parasite growth, replicate wells (Fig 1b): 7.00E+00 (2×) and 8.00E+00
[3]; Log[inhibitor] (M) -5.816
  parasite growth, replicate wells (Fig 1b): 1.20E+01 (2×) and 1.40E+01
[3]; Log[inhibitor] (M) -6.222
  parasite growth, replicate wells (Fig 1b): 6.90E+01 (2×) and 7.10E+01
[3]; Log[inhibitor] (M) -6.638
  parasite growth, replicate wells (Fig 1b): 8.90E+01 and 9.90E+01 and 9.60E+01
[3]; Log[inhibitor] (M) -7.046
  parasite growth, replicate wells (Fig 1b): 9.70E+01 and 1.01E+02 (2×)
[3]; Log[inhibitor] (M) -7.450
  parasite growth, replicate wells (Fig 1b): 8.80E+01 and 9.60E+01 and 1.00E+02
[3]; Log[inhibitor] (M) -7.854
  parasite growth, replicate wells (Fig 1b): 1.06E+02 and 1.07E+02 and 9.90E+01
[3]; Log[inhibitor] (M) -8.260
  parasite growth, replicate wells (Fig 1b): 1.03E+02 and 9.80E+01 and 1.01E+02
[3]; Log[inhibitor] (M) -8.699
  parasite growth, replicate wells (Fig 1b): 9.70E+01 (2×) and 9.90E+01
[3]; Log[inhibitor] (M) -9.000
  parasite growth, replicate wells (Fig 1b): 1.04E+02 and 1.02E+02 and 9.80E+01
[3]; Log[inhibitor] (M) -9.488
  parasite growth, replicate wells (Fig 1b): 9.60E+01 and 9.50E+01 and 9.40E+01
[4]; Log[inhibitor] (M) -6.301
  dose-response signal (normalized), SI Fig 8: 1.92E-01 and 4.91E-02 and 9.09E-02 and 1.28E-01 and 2.12E-01 and 1.32E-01
[4]; Log[inhibitor] (M) -6.602
  dose-response signal (normalized), SI Fig 8: 2.13E-01 and 1.64E-01 and 1.25E-01 and 4.31E-02 and 9.86E-02 and 8.65E-02
[4]; Log[inhibitor] (M) -6.904
  dose-response signal (normalized), SI Fig 8: 1.14E-01 and 8.81E-02 and 8.34E-02 and 1.41E-01 and 2.01E-01 and 1.23E-01
[4]; Log[inhibitor] (M) -7.205
  dose-response signal (normalized), SI Fig 8: 2.07E-01 and 2.31E-01 and 1.85E-01 and 3.09E-01 and 3.02E-01 and 1.82E-01
[4]; Log[inhibitor] (M) -7.506
  dose-response signal (normalized), SI Fig 8: 4.98E-01 and 4.91E-01 and 5.79E-01 and 3.60E-01 and 6.32E-01 and 4.92E-01
[4]; Log[inhibitor] (M) -7.796
  dose-response signal (normalized), SI Fig 8: 7.43E-01 and 8.09E-01 and 7.32E-01 and 8.58E-01 and 7.28E-01 and 7.94E-01
[4]; Log[inhibitor] (M) -8.097
  dose-response signal (normalized), SI Fig 8: 9.39E-01 and 7.78E-01 and 8.55E-01 and 1.05E+00 and 7.40E-01 and 9.07E-01
[4]; Log[inhibitor] (M) -8.407
  dose-response signal (normalized), SI Fig 8: 8.45E-01 and 1.01E+00 and 1.04E+00 and 1.10E+00 and 1.00E+00 and 9.65E-01
[4]; Log[inhibitor] (M) -8.708
  dose-response signal (normalized), SI Fig 8: 1.03E+00 and 1.01E+00 and 9.69E-01 and 1.00E+00 and 9.25E-01 and 9.85E-01
[4]; Log[inhibitor] (M) -9.018
  dose-response signal (normalized), SI Fig 8: 1.01E+00 and 9.85E-01 and 9.47E-01 and 1.02E+00 (2×) and 9.53E-01
[4]; Log[inhibitor] (M) -9.319
  dose-response signal (normalized), SI Fig 8: 1.08E+00 and 9.09E-01 and 9.54E-01 and 9.77E-01 and 1.04E+00 and 9.33E-01
[4]; Log[inhibitor] (M) -9.620
  dose-response signal (normalized), SI Fig 8: 9.48E-01 and 9.58E-01 and 1.04E+00 and 1.08E+00 and 1.01E+00 and 9.21E-01
[4]; Log[inhibitor] (M) -9.921
  dose-response signal (normalized), SI Fig 8: 1.02E+00 and 1.01E+00 and 9.29E-01 and 9.34E-01 and 1.07E+00 and 9.91E-01
[4]; Log[inhibitor] (M) -10.097
  dose-response signal (normalized), SI Fig 8: 9.97E-01 and 1.11E+00 (2×) and 9.85E-01 and 1.06E+00 and 9.77E-01
[4]; Log[inhibitor] (M) -10.585
  dose-response signal (normalized), SI Fig 8: 1.09E+00 and 8.10E-01 and 1.01E+00 and 1.14E+00 and 1.16E+00 and 1.07E+00
[4]; SI Fig 16a, values on -log scale
  PfcProRS -- best Kd: 8.144
